PMC2731040 (BMC Clinical Pharmacology, 2009)

Key:
[1] = system: nondependent cocaine-experienced subjects; assay: Subjective measures (verbal ratings, visual analog scales, POMS) during cocaine challenge sessions; type: in vivo, human; conditions: for Cocaine Craving (0–100), Peak change / Global Intoxication (0–100), Peak change: verbal rating; for Bad Drug Effect (0–100), Peak change / Good Drug Effect (0–100), Peak change: visual analog scale
From the text: Verbal ratings of global intoxication and craving (on a scale of 0 to 100) were obtained at the same time points as the physiologic measures, with 0 representing no drug effect and 100 representing the highest level of intoxication or craving.
Visual analog scales were used to rate the degree of drug liking by moving an arrow along a 10 cm line marked at opposite ends as 0 (not at all) and 100 (extreme) using a hand-held computer (Tandy 102). Items rated on the visual analog scale included "good drug effect" and "bad drug effect," and were obtained prior to cocaine infusion and at 0.17, 0.5, 0.75, 1, 1.5, 2, 2.5, 3, 3.5, 4, 4.25, 4.5, 5, 6, and 8 hours after dosing.
The Profile of Mood States (POMS) assessed mood changes in Anger, Confusion, Fatigue, Tension, and Vigor on a scale from 0 to 4, where 0 indicated "no effect" and 4 indicates "extremely strong". Ratings were obtained prior to cocaine infusion and at 1, 3, and 6 hours after dosing.
The time courses of physiologic and subjective data were analyzed by repeated measures analysis of variance (ANOVA). Treatment conditions (Sessions 1 and 2) and observation times (hours post-dose) were considered within-subject factors. Change scores (post-dose minus pre-dose values) were used in most analyses. Raw score were used where indicated. After a significant F test, pairwise comparisons of treatment conditions were performed using the least squares means analysis. Peak effects within a session were determined for each subject and each variable and analyzed using a one-factor repeated measures ANOVA. Effects were considered statistically significant at p = 0.05. Data were adjusted for sphericity using the Huynh-Feldt adjustment factor. Huynh-Feldt-corrected significance values are reported.

MAO-B = molecular target: T1, MAO-B (Homo sapiens, UniProt P27338); type: in vivo; conditions: Day 3–4 After Cocaine Preselegiline
T1 construct: Twelve nondependent cocaine-experienced subjects received deuterium-labeled cocaine-d5 intravenously; from tissue; host or cells: whole body of living human subjects (in vivo); 24-hour urine analysed for PEA
T1 sequence (P27338 1-520): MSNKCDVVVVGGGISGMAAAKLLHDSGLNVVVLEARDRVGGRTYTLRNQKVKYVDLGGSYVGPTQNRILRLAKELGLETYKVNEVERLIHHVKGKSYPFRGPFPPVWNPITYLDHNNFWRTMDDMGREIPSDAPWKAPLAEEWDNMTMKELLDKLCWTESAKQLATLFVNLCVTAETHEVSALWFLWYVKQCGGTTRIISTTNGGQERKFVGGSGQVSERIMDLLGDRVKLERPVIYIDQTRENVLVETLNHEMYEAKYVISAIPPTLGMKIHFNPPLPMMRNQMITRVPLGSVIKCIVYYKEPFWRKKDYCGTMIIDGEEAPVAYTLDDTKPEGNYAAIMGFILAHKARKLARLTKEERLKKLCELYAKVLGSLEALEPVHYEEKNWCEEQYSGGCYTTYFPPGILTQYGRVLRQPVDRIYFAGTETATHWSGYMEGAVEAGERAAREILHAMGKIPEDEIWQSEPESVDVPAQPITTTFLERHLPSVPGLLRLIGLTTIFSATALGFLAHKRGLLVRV
From the text: (§1) The interactions between MAO-A inhibitors and cocaine administered are largely unexplored. […] Therefore, measurement of dopaminergic and noradrenergic tone may be important in predicting toxic events. We measured dopaminergic tone with the surrogate marker of plasma HVA, the major brain metabolite of dopamine, and serum levels of prolactin, a hormone whose secretion is inhibited by dopamine. The surrogate for noradrenergic tone was urine concentrations of MHPG-S. In order to assess the degree of MAO-A and MAO-B inhibition, we assayed concentrations of a substrate of MAO-B, phenylethylamine (PEA). PEA would be expected to increase with MAO-B inhibition, and concentrations of MHPG-S, which is a metabolite of norepinephrine produced by MAO-A primarily in the brain [20], would be expected to decrease.
(§2) When subjects were in the GCRC, all urine was collected and volumes recorded. Following each cocaine infusion, urine was collected in fractions from 0 to 24, 24 to 48, and 48 to 72 hours (timed from the start of the infusion). Samples were then frozen at -70°C until analyzed. […] A qualitative screen for drugs of abuse was obtained every other day for the entire study period.

noradrenergic tone = assay: Urinary MHPG-S excretion (surrogate for noradrenergic tone, MAO-A metabolite); type: in vivo, human
From the text: as §1, §2
Concentrations of MHPG-S in urine were determined using LC-MS/MS [29]. […] As urinary creatinine excretion is directly related to glomerular filtration and renal blood flow, and urinary creatinine excretion is relatively constant (~1 gm/day), it can be used to estimate concentrations of a substance during a 24 hour urine collection period. Using ratios of the concentrations of MHPG-S to creatinine obtained from assays of these spot urine samples, MGPG-S concentrations during the outpatient period (when subjects would be unlikely to provide accurate 24 hour urine collections) were compared to those from urine samples on inpatient days.

[2] = Session 1: first cocaine infusion, before selegiline
[3] = Session 2: second cocaine infusion, after one week of selegiline STS

SMILES: COC(=O)[C@H]1[C@@H](OC(=O)c2ccccc2)C[C@@H]2CC[C@H]1N2C [Cocaine, cocaine]
- Bad Drug Effect, Peak Time [1, 2]: 1.9 ± 2.3 Hr Postdose
- Cocaine Craving, Peak Time [1, 2]: 1.1 ± 1.3 Hr Postdose
- Global Intoxication, Peak Time [1, 2]: 0.7 ± 1 Hr Postdose
- Good Drug Effect, Peak Time [1, 2]: 0.9 ± 1.5 Hr Postdose
- POMS Anger (0–28), Peak change [1, 2]: 2.8 ± 6.4
- POMS Anger, Peak Time [1, 2]: 6 ± 0 Hr Postdose
- POMS Confusion (0–20), Peak change [1, 2]: 2.5 ± 2.8
- POMS Confusion, Peak Time [1, 2]: 6 ± 0 Hr Postdose
- POMS Depression (0–64), Peak change [1, 2]: 3 ± 6.5
- POMS Depression, Peak Time [1, 2]: 3 ± 0 Hr Postdose
- POMS Fatigue (0–28), Peak change [1, 2]: 5.9 ± 5.9
- POMS Fatigue, Peak Time [1, 2]: 6 ± 0 Hr Postdose
- POMS Tension (0–28), Peak change [1, 2]: 7.5 ± 6.1
- POMS Tension, Peak Time [1, 2]: 1 ± 0 Hr Postdose
- POMS Vigor (0–32), Peak change [1, 2]: -3.6 ± 3.4
- POMS Vigor, Peak Time [1, 2]: 6 ± 0 Hr Postdose
- Cocaine Craving (0–100), Peak change [1, 2]: 33 ± 25
- Global Intoxication (0–100), Peak change [1, 2]: 57 ± 27
- Bad Drug Effect (0–100), Peak change [1, 2]: 46 ± 31
- Good Drug Effect (0–100), Peak change [1, 2]: 66 ± 23
- Bad Drug Effect, Peak Time [1, 3]: 1.4 ± 1.9 Hr Postdose
- Cocaine Craving, Peak Time [1, 3]: 0.6 ± 0.7 Hr Postdose
- Global Intoxication, Peak Time [1, 3]: 0.6 ± 0.9 Hr Postdose
- Good Drug Effect, Peak Time [1, 3]: 1 ± 1.3 Hr Postdose
- POMS Anger, Peak Time [1, 3]: 6 ± 0 Hr Postdose
- POMS Confusion (0–20), Peak change [1, 3]: 2.7 ± 4.7
- POMS Confusion, Peak Time [1, 3]: 3 ± 0 Hr Postdose
- POMS Depression (0–64), Peak change [1, 3]: 1.5 ± 2.4
- POMS Depression, Peak Time [1, 3]: 3 ± 0 Hr Postdose
- POMS Fatigue (0–28), Peak change [1, 3]: 2.8 ± 5.3
- POMS Fatigue, Peak Time [1, 3]: 6 ± 0 Hr Postdose
- POMS Tension (0–28), Peak change [1, 3]: 4.8 ± 3.9
- POMS Tension, Peak Time [1, 3]: 1 ± 0 Hr Postdose
- POMS Vigor (0–32), Peak change [1, 3]: -3.9 ± 6.1
- POMS Vigor, Peak Time [1, 3]: 6 ± 0 Hr Postdose
- POMS Anger (0–28), Peak change ([1]; Session 2: second cocaine infusion, after one week of selegiline STS, significantly different from Session 1 (p < 0.03)): -2.1 ± 5.7
- Cocaine Craving (0–100), Peak change [1, 3]: 20 ± 21
- Global Intoxication (0–100), Peak change [1, 3]: 53 ± 23
- Bad Drug Effect (0–100), Peak change [1, 3]: 55 ± 25
- Good Drug Effect (0–100), Peak change [1, 3]: 60 ± 21
- Global intoxication, verbal ratings of craving, and good drug effect compared to baseline ([1]; both cocaine challenge sessions): increased
- Total Amount of PEA Excreted in the 24 Hour Urine Collection (MAO-B): 0.003 ± 0.004 mg
- Total Amount of MHPG-S Excreted in the 24 Hour Urine Collection (noradrenergic tone; Day 3–4 After Cocaine Preselegiline): 1.44 ± 0.43 mg
- Urine MHPG-S/creatinine concentration ratios vs the day before cocaine challenge (noradrenergic tone; second day after the first cocaine challenge, p < 0.05): increased significantly
